Blank lines part the entries; values can stand above or below the compound they belong to.
Key:
[1] = tested on: JeKo-1; assay: Antiproliferative activity against human JeKo1 cells; format: functional, cell-based
[2] = Antiproliferative activity against human ECC1 cells; format: functional, cell-based; details: ECC-1
[3] = tested on: RPMI-8226; assay: Antiproliferative activity against human RPMI8226 cells; format: functional, cell-based
[4] = tested on: U-266; assay: Antiproliferative activity against human U266 cells; format: functional, cell-based
[5] = tested on: MM1.S; assay: Antiproliferative activity against human MM1S cells; format: functional, cell-based
[6] = Antiproliferative activity against human ANBL-6 cells; format: functional, cell-based
[7] = Antiproliferative activity against human RPMI8226/LR5 cells; format: functional, cell-based; details: RPMI-8226
[8] = tested on: RPMI-8226; assay: Antiproliferative activity against doxorubicin-resistant human RPMI8226 cells; format: functional, cell-based
[9] = Antiproliferative activity against human U266/LR6 cells; format: functional, cell-based; details: U-266
[10] = Antiproliferative activity against human MM1R cells; format: functional, cell-based; details: MM.1R
[11] = Antiproliferative activity against human ANBL6/B7R cells; format: functional, cell-based; details: ANBL-6
[12] = tested on: S-phase kinase-associated protein 1/S-phase kinase-associated protein 2 (Homo sapiens); assay: Inhibition of SKP1/SKP2 protein-protein interaction in human MM1S cells assessed as reduction in p27 ubiquitylation at 10 uM after 16 hrs by PAGE analysis relative to control
[13] = tested on: S-phase kinase-associated protein 1/S-phase kinase-associated protein 2 (Homo sapiens); assay: Inhibition of SKP1/SKP2 protein-protein interaction in human MM1S cells assessed as reduction in p27 ubiquitylation at 20 uM after 16 hrs by PAGE analysis relative to control
[14] = tested on: S-phase kinase-associated protein 1/S-phase kinase-associated protein 2 (Homo sapiens); assay: Inhibition of SKP1/SKP2 protein-protein interaction in human MM1S cells assessed as reduction in p27 ubiquitylation at 25 uM after 16 hrs by PAGE analysis relative to control
[15] = target: T1, Cyclin-dependent kinases regulatory subunit 1/S-phase kinase-associated protein 2 (Homo sapiens, UniProt P61024+Q13309); assay: Inhibition of GST-tagged SKP2 (unknown origin)/His6-tagged CKS1 (unknown origin) expressed in Escherichia coli protein-protein interaction after 1 hr by Alpha screen assay
Target sequence in this assay (P61024 whole entry): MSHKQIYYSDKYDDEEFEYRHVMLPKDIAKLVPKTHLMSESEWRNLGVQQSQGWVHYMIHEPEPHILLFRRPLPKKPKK
Target sequence in this assay (Q13309 whole entry): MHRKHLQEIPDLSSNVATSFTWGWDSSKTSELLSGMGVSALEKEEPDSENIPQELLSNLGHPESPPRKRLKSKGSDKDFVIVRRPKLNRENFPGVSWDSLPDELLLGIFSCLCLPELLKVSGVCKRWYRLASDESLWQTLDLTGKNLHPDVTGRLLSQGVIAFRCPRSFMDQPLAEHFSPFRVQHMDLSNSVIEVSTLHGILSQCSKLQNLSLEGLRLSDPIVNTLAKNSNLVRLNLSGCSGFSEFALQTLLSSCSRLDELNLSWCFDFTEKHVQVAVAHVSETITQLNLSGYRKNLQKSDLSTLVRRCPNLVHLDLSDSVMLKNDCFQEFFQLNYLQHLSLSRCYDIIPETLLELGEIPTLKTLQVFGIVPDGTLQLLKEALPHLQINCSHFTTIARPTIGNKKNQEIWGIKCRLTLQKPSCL

[16] = tested on: HeLa; assay: Antiproliferative activity against human HeLa cells; format: functional, cell-based
[17] = Antiproliferative activity against mouse tsFT210 cells; format: functional, cell-based
[18] = tested on: NIH3T3; assay: Antiproliferative activity against mouse NIH/3T3 cells; format: functional, cell-based
[19] = target: T1, Cyclin-dependent kinases regulatory subunit 1/S-phase kinase-associated protein 2; assay: Inhibition of N-terminal fluorescent monomeric Azami Green-tagged SKP2 (unknown origin)/CKS1 (unknown origin) expressed in Escherichia coli DH10 protein-protein interaction assessed as reduction in p27 ubiquitylation at 0.4 to 3.2 uM relative to control
Target sequence in this assay (P61024 2-79 limits assumed): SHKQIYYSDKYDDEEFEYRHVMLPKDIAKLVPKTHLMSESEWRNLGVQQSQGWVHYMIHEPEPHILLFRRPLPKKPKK
Target sequence in this assay (Q13309 whole entry partner): as the sequence (Q13309 whole entry) above

Compound: COC(=O)C1=C(C)N(c2ccc(Br)cc2)C(=O)/C1=C\c1ccccc1O
EC50 [1]: 9.3 µM
EC50 [2]: 14.3 µM

IC50 [3]: 8 µM
IC50 [5]: 5.4 µM
IC50 [8]: 8.5 µM
inhibition [12]: 8%
inhibition [13]: 44%
inhibition [14]: 51%
Compound: CN(C)c1ccc(CNCCC(Cc2ccccc2)C2CCOC(C)(C)C2)cc1 (configuration not stated)
IC50 [4]: 4.2 µM
IC50 [6]: 10 µM
IC50 [7]: 6.3 µM
IC50 [9]: 4.3 µM
IC50 [10]: 5.4 µM
IC50 [11]: 8 µM

IC50 [15]: 36 µM
Compound: O=C(OC12CC3CC(CC(C3)C1)C2)c1ccc(NCc2cc(O)ccc2O)cc1

IC50 [16]: 400 nM
Compound: CN(C)c1ccc(C(=C2C=CC(=[N+](C)C)C=C2)c2ccc(N(C)C)cc2)cc1 [GENTIAN VIOLET]
IC50 [17]: 600 nM
IC50 [18]: 5.3 µM

IC50 [16]: 3200 nM
inhibition [19]: 70 to 80%
Compound: C=C(C)C(=O)O[C@H]1CC(=C)[C@@H]2C[C@H](O)[C@](O)(CCl)[C@@H]2[C@H]2OC(=O)C(=C)[C@@H]21
IC50 [17]: 1600 nM
IC50 [18]: 12.7 µM
